Assay [1] deals with T1, HCV polymerase (NS5B) type 1a (Hepatitis C virus genotype 1a, UniProt P26664).
T1 construct: made in house; host or cells: Escherichia coli (by the 'similar method' of the 1b enzyme)
Description: Assay of enzyme (HCV polymerase) inhibitory activity, type 1a enzyme. It is filed as biochemical, HCV type 1a (cloned from the blood of patients). Summed up:
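Reactions ran 60 min at 25° C in 20 mM Tris-HCl pH 7.5, 5 mM MgCl2, 50 mM NaCl, holding genotype 1a NS5B (1.5 μg/ml, Δ47 C-terminus, 6His), substrate RNA 5 μg/ml, UTP 2 μM with tritiated UTP and other NTPs 50 μM. IC50 derived from incorporated radiolabel in filter-trapped RNA relative to uninhibited reaction.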

The target of assay [2] is T2, HCV polymerase (NS5B) type 1b (Hepatitis C virus genotype 1b, UniProt P26663).
T2 construct: a region encoding NS5B (J Virol 1991 March, 65(3), 1105-13, 544 amino acids after deletion of 47 amino acids on the C-terminal); 6xHis (C); made in house; host or cells: Escherichia coli
Description: Assay of enzyme (HCV polymerase) inhibitory activity, type 1b enzyme. It is filed as biochemical, HCV BK strain (type 1b). Summed up:
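IC50 derived from [3H]UTP incorporation into TCA-insoluble RNA, compared with and without test compound. Reaction (25 °C, 60 min, Tris pH 7.5, 5 mM MgCl2): E. coli-expressed 1b NS5B Δ47 with His tag at 0.5 μg/ml, 5 μg/ml run-off substrate RNA, ATP/GTP/CTP 50 μM, UTP 2 μM.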

Setting [3] is: HCV polymerase inhibitory activity (IC50), 1a, type 1a enzyme 1.5 μg/ml, 25° C., 60 min.
[4] abbreviates: HCV polymerase inhibitory activity (IC50), 1b, type 1b enzyme 0.5 μg/ml, 25° C., 60 min.
Setting [5] is: HCV polymerase inhibitory activity IC50, 1a, type 1a enzyme.
[6] abbreviates: HCV polymerase inhibitory activity IC50, 1b, type 1b enzyme.

Take `CN1CCN(Cc2cnc(N3CCN(S(=O)(=O)c4ccc(OC(F)(F)F)cc4)[C@@H](C(=O)NCc4ccc(C(C)(C)C)cc4)C3)cn2)CC1` [Example 594, (R)-5′-(4-methyl-piperazin-1-ylmethyl)-4-(4-trifluoromethoxy-benzenesulfonyl)-3,4,5,6-tetrahydro-2H-[1,2′]bipyrazinyl-3-carboxylic acid 4-tert-butyl-benzylamide]: the IC50 in assay [1] (setting [3]) and in assay [2] (setting [4]) was less than 100 nM in each case.

As to `CCN(CC)c1nc(Br)nc2nc(N3CCN(S(=O)(=O)c4ccc(C(F)(F)F)cc4)[C@@H](C(=O)NCc4ccc(OC(F)(F)F)cc4)C3)sc12` [Example 974, (R)-4-(5-bromo-7-diethylamino-thiazolo[4,5-d]pyrimidin-2-yl)-1-(4-trifluoromethyl-benzenesulfonyl)-piperazine-2-carboxylic acid 4-trifluoromethoxy-benzylamide], the 50% inhibitory concentration (IC50) in assay [1] (setting [5]) and in assay [2] (setting [6]) was more than 1000 nM in each case.

On to `Cc1cc(=O)nc2sc(N3CCN(S(=O)(=O)c4ccc(OC(F)(F)F)cc4)[C@@H](C(=O)NCc4ccc(OC(F)(F)F)cc4)C3)nn12` [Example 1019, (R)-4-(5-methyl-7-oxo-7H-[1,3,4]thiadiazolo[3,2-a]pyrimidin-2-yl)-1-(4-trifluoromethoxy-benzenesulfonyl)-piperazine-2-carboxylic acid 4-trifluoromethoxy-benzylamide], for which the IC50 in assay [1] (setting [5]) and in assay [2] (setting [6]) was less than 100 nM in each case.

In the case of `CCOC(=O)c1cnc(N2CCN(S(=O)(=O)c3ccc(C(F)(F)F)cc3)[C@@H](C(=O)NCc3ccc(C(C)C)cc3)C2)nc1O` [Example 325, 4-hydroxy-2-[(R)-3-(4-isopropyl-benzylcarbamoyl)-4-(4-trifluoromethyl-benzenesulfonyl)-piperazin-1-yl]-pyrimidine-5-carboxylic acid ethyl ester], the results for the IC50 in assay [1] (setting [3]) and in assay [2] (setting [4]) were more than 1000 nM and 100 to 1000 nM, respectively.

As to `O=C(NCc1ccc(OC(F)(F)F)cc1)[C@H]1CN(c2nc3nc(CC4CC4)ncc3s2)CCN1S(=O)(=O)c1ccc(C(F)(F)F)cc1` [Example 1012, (R)-4-(5-cyclopropylmethyl-thiazolo[4,5-d]pyrimidin-2-yl)-1-(4-trifluoromethyl-benzenesulfonyl)-piperazine-2-carboxylic acid 4-trifluoromethoxy-benzylamide], the IC50 in assay [1] (setting [5]) and in assay [2] (setting [6]) was less than 100 nM each time.

As for `CC(C)c1ccc(S(=O)(=O)N2CCN(C(=O)CCO)CC2C(=O)NCc2ccc(C(F)(F)F)cc2)cc1` (stereo not shown) [Example 58, 4-(3-hydroxy-propionyl)-1-(4-isopropyl-benzenesulfonyl)-piperazine-2-carboxylic acid 4-trifluoromethyl-benzylamide], the IC50 in assay [1] (setting [3]) and in assay [2] (setting [4]) was more than 1000 nM throughout.

Consider `CCCc1ccc(CNC(=O)[C@H]2CN(c3cnc4cncc(Br)c4n3)CCN2S(=O)(=O)c2ccc(CC)cc2)cc1` [Example 813, (R)-4-(8-bromo-pyrido[3,4-b]pyrazin-2-yl)-1-(4-ethyl-benzenesulfonyl)-piperazine-2-carboxylic acid 4-propyl-benzylamide], for which the IC50 in assay [1] (setting [5]) and in assay [2] (setting [6]) was less than 100 nM in each case.

For the compound `CCC(C)(C)c1ccc(S(=O)(=O)N2CCN(C(C)=O)CC2C(=O)NCc2ccc(C(F)(F)F)cc2)cc1` (stereo not shown) [Example 97, 4-acetyl-1-[4-(1,1-dimethyl-propyl)-benzenesulfonyl]-piperazine-2-carboxylic acid 4-trifluoromethyl-benzylamide], the IC50 in assay [1] (setting [3]) and in assay [2] (setting [4]) was more than 1000 nM throughout.

For `O=C(NCc1ccc(OC(F)(F)F)cc1)[C@H]1CN(c2cnc3cnc(C(F)(F)F)nc3n2)CCN1S(=O)(=O)c1ccc(OC(F)(F)F)cc1` [Example 798, (R)-1-(4-trifluoromethoxy-benzenesulfonyl)-4-(2-trifluoromethyl-pteridin-7-yl)-piperazine-2-carboxylic acid 4-trifluoromethoxy-benzylamide], the IC50 in assay [1] (setting [5]) was 100 to 1000 nM; in assay [2] (setting [6]), less than 100 nM.

Turning to `O=C(NCc1ccc(OC(F)(F)F)cc1)[C@H]1CN(c2nc3nccnc3s2)CCN1S(=O)(=O)c1ccc(OC(F)(F)F)cc1` [Example 794, (R)-4-thiazolo[4,5-b]pyrazin-2-yl-1-(4-trifluoromethoxy-benzenesulfonyl)-piperazine-2-carboxylic acid 4-trifluoromethoxy-benzylamide], the IC50 in assay [1] (setting [5]) and in assay [2] (setting [6]) was less than 100 nM throughout.

On to `CC(C)c1ccc(CNC(=O)[C@H]2CN(C(=O)Cn3nnc(CC(=O)O)n3)CCN2S(=O)(=O)c2ccc(C(F)(F)F)cc2)cc1` [Example 310, (2-{2-[(R)-3-(4-isopropyl-benzylcarbamoyl)-4-(4-trifluoromethyl-benzenesulfonyl)-piperazin-1-yl]-2-oxo-ethyl}-2H-tetrazol-5-yl)-acetic acid], for which the IC50 is 100 to 1000 nM in assay [1] (setting [3]) and less than 100 nM in assay [2] (setting [4]).

Take `CCCc1ccc(CNC(=O)[C@H]2CN(C(=O)Cn3ccnc3)CCN2S(=O)(=O)c2ccc(OC(F)(F)F)cc2)cc1` [Example 462, (R)-4-(2-imidazol-1-yl-acetyl)-1-(4-trifluoromethoxy-benzenesulfonyl)-piperazine-2-carboxylic acid 4-propyl-benzylamide]: the IC50 in assay [1] (setting [3]) and in assay [2] (setting [4]) was less than 100 nM in each case.

Consider `COC1(c2ncc3sc(N4CCN(S(=O)(=O)c5ccc(OC(F)(F)F)cc5)[C@@H](C(=O)NCc5ccc(OC(F)(F)F)cc5)C4)nc3n2)CC1` [Example 1079, (R)-4-[5-(1-methoxy-cyclopropyl)-thiazolo[4,5-d]pyrimidin-2-yl]-1-(4-trifluoromethoxy-benzenesulfonyl)-piperazine-2-carboxylic acid 4-trifluoromethoxy-benzylamide], for which the IC50 in assay [1] (setting [5]) and in assay [2] (setting [6]) was less than 100 nM throughout.

Regarding `O=C(NCc1ccc(OC(F)F)cc1F)[C@H]1CN(c2nc3nc(C(F)(F)F)ncc3s2)CCN1S(=O)(=O)c1ccc(OC(F)(F)F)cc1` [Example 1044, (R)-1-(4-trifluoromethoxy-benzenesulfonyl)-4-(5-trifluoromethyl-thiazolo[4,5-d]pyrimidin-2-yl)-piperazine-2-carboxylic acid 4-difluoromethoxy-2-fluoro-benzylamide], the concentration for half-maximal inhibition (IC50) in assay [1] (setting [5]) and in assay [2] (setting [6]) was less than 100 nM in each case.

For the compound `CCC(F)(F)c1ccc(CNC(=O)[C@H]2CN(c3cnc4cnccc4n3)CCN2S(=O)(=O)c2ccc(N3CCCC3=O)cc2)cc1` [Example 751, (R)-1-[4-(2-oxo-pyrrolidin-1-yl)-benzenesulfonyl]-4-pyrido[3,4-b]pyrazin-2-yl-piperazine-2-carboxylic acid 4-(1,1-difluoro-propyl)-benzylamide], the IC50 in assay [1] (setting [5]) and in assay [2] (setting [6]) was less than 100 nM throughout.

`O=C(NCc1ccc(-c2ccccn2)s1)[C@H]1CN(c2cnc3cncnc3n2)CCN1S(=O)(=O)c1ccc(OC(F)(F)F)cc1` [Example 730, (R)-4-pteridin-7-yl-1-(4-trifluoromethoxy-benzenesulfonyl)-piperazine-2-carboxylic acid (5-pyridin-2-yl-thiophen-2-ylmethyl)-amide]: the IC50 in assay [1] (setting [5]) and in assay [2] (setting [6]) was less than 100 nM in each case.

As for `CC(C)(C)c1ccc(CNC(=O)[C@H]2CN(c3nc4c(s3)CN(S(C)(=O)=O)CC4)CCN2S(=O)(=O)c2ccc(OC(F)(F)F)cc2)cc1` [Example 600, (R)-4-(5-methanesulfonyl-4,5,6,7-tetrahydro-thiazolo[5,4-c]pyridin-2-yl)-1-(4-trifluoromethoxy-benzenesulfonyl)-piperazine-2-carboxylic acid 4-tert-butyl-benzylamide], the IC50 in assay [1] (setting [3]) and in assay [2] (setting [4]) was less than 100 nM throughout.

As for `CCC(F)(F)c1ccc(CNC(=O)[C@H]2CN(c3cnc4cc(C(=O)O)ccc4n3)CCN2S(=O)(=O)c2ccc(OC(F)(F)F)cc2)cc1` [Example 712, 2-[(R)-3-[4-(1,1-difluoro-propyl)-benzylcarbamoyl]-4-(4-trifluoromethoxy-benzenesulfonyl)-piperazin-1-yl]-quinoxaline-6-carboxylic acid], the IC50 in assay [1] (setting [5]) and in assay [2] (setting [6]) was less than 100 nM in each case.

`COc1ncc2sc(N3CCN(S(=O)(=O)c4ccc(C(F)(F)F)cc4)[C@@H](C(=O)NCc4ccc(OC(F)(F)F)cc4)C3)nc2n1` [Example 905, (R)-4-(5-methoxy-thiazolo[4,5-d]pyrimidin-2-yl)-1-(4-trifluoromethyl-benzenesulfonyl)-piperazine-2-carboxylic acid 4-trifluoromethoxy-benzylamide]: the IC50 in assay [1] (setting [5]) and in assay [2] (setting [6]) was less than 100 nM throughout.

For the compound `Cc1cc(N2CCN(S(=O)(=O)c3ccc(OC(F)(F)F)cc3)[C@@H](C(=O)NCc3ccc(C(C)C)cc3)C2)n[nH]1` [Example 523, (R)-4-(5-methyl-1H-pyrazol-3-yl)-1-(4-trifluoromethoxy-benzenesulfonyl)-piperazine-2-carboxylic acid 4-isopropyl-benzylamide], the IC50 in assay [1] (setting [3]) and in assay [2] (setting [4]) was 100 to 1000 nM in each case.

Values taken from patent publication US8017612B2, “Piperazine compound and use thereof as a HCV polymerase inhibitor” (priority 2006, dated 2011).
